The results in this text go back to patent US20120245137A1 (Zalicus Pharmaceuticals Ltd., priority 2009, published 2012).

For orientation: IC50 means the concentration that inhibits the measured activity by half.

Format in all cases: cell-based
For test [1], the target named is human α1H T-type channels (Homo sapiens, UniProt O95180). In words: T-type calcium channel block, whole cell patch clamp, α1H. To be noted: HEK cells stably expressing human α1H; mainly non-inactivated protocol; values above 10,000 nM represented as 10000. The method, boiled down:
(§1)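 Using standard patch-clamp, T-type currents were recorded from stably transfected human α1G or α1H HEK 293 cells. Separate non-inactivating and inactivation voltage protocols distinguished resting from voltage-dependent block by locally applied compound in 0.1-0.01% DMSO.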

Test [2] has as its target human α1G T-type channels (Homo sapiens, UniProt O43497). The test is described as follows: T-type calcium channel block, whole cell patch clamp, α1G. Particulars: HEK cells stably expressing human α1G; mainly non-inactivated protocol; values above 10,000 nM represented as 10000. In short, it runs like this:
as §1
On the technique in general: In patch-clamp work, channel activity is measured electrically.

Test [3] concerns the target N-type calcium channel subunits (α1B, α2δ, and β3a) (Homo sapiens, UniProt Q00975). The test is described as follows: Block of Cav2.2 channel, whole cell voltage clamp, manual and PatchXpress. To be noted: Table 5; table follows Assay Example 3 (whole cell voltage clamp / PatchXpress); assay not given. The method, boiled down: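 Percent block taken as current amplitude ratio with versus without compound, applied in rising doses; IC50 fitted where one cell received multiple doses. Protocol: 50 ms pulses to +20 mV at 0.067 Hz from […] or −90 mV holding; P/n leak subtraction, no junction-potential correction; manual and PatchXpress recordings.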

Sequence of human α1H T-type channels (O95180 whole entry): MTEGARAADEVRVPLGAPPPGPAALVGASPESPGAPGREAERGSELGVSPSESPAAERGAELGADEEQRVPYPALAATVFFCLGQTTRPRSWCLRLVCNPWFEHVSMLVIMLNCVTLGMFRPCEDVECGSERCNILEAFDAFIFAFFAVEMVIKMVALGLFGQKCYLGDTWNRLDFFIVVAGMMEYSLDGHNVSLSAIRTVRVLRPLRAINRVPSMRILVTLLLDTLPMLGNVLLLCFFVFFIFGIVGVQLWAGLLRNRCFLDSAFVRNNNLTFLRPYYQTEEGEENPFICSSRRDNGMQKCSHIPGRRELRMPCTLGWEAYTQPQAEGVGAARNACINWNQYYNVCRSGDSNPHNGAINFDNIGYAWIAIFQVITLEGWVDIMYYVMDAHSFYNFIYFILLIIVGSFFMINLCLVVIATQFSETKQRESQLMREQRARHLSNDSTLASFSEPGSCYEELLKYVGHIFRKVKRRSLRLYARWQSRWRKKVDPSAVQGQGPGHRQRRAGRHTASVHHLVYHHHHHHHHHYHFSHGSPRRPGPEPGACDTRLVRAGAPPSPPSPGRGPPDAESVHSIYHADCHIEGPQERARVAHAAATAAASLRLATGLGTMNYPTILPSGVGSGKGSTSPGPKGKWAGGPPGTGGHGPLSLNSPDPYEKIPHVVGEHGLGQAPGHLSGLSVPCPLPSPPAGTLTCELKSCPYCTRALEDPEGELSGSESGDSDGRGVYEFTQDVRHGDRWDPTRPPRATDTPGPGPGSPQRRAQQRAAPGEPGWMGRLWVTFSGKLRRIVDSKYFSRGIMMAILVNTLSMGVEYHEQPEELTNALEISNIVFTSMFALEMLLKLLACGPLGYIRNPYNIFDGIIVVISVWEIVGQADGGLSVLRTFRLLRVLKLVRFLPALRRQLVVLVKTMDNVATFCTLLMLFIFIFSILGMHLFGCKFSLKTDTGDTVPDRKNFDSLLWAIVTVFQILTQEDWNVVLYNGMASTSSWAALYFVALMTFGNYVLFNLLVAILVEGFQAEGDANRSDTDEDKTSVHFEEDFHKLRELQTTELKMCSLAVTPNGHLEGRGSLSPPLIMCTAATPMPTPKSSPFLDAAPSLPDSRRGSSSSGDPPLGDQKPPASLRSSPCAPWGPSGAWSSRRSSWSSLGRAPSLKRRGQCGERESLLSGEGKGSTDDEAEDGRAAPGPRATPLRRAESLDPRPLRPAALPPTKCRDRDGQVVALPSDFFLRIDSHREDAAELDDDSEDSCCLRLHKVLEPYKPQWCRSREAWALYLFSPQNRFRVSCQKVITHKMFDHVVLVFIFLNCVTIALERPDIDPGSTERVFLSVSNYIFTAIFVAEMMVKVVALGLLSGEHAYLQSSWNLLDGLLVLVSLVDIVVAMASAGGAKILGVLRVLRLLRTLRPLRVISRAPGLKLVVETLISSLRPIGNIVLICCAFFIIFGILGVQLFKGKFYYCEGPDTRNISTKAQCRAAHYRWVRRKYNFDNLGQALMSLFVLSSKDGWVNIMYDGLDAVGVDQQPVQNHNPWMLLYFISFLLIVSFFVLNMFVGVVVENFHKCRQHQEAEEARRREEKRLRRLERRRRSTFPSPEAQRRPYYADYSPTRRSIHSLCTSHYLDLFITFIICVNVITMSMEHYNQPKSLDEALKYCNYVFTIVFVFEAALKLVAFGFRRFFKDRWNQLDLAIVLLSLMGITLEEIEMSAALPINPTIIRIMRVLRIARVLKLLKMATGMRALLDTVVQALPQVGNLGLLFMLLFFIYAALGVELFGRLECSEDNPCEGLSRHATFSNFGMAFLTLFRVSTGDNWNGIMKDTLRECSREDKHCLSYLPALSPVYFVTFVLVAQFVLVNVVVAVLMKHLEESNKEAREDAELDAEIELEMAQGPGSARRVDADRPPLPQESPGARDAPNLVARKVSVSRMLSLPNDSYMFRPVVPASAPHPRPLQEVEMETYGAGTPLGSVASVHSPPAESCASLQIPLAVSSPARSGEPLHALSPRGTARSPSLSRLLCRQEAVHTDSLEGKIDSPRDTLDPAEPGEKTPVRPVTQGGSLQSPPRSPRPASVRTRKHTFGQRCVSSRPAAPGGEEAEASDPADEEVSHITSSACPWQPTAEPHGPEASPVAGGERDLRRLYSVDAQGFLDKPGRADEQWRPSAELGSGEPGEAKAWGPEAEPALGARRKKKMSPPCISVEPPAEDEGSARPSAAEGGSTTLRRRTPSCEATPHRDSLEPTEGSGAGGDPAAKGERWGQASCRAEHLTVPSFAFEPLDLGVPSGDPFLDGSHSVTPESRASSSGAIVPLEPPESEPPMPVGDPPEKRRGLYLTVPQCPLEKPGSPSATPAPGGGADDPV
Sequence of human α1G T-type channels (O43497 whole entry): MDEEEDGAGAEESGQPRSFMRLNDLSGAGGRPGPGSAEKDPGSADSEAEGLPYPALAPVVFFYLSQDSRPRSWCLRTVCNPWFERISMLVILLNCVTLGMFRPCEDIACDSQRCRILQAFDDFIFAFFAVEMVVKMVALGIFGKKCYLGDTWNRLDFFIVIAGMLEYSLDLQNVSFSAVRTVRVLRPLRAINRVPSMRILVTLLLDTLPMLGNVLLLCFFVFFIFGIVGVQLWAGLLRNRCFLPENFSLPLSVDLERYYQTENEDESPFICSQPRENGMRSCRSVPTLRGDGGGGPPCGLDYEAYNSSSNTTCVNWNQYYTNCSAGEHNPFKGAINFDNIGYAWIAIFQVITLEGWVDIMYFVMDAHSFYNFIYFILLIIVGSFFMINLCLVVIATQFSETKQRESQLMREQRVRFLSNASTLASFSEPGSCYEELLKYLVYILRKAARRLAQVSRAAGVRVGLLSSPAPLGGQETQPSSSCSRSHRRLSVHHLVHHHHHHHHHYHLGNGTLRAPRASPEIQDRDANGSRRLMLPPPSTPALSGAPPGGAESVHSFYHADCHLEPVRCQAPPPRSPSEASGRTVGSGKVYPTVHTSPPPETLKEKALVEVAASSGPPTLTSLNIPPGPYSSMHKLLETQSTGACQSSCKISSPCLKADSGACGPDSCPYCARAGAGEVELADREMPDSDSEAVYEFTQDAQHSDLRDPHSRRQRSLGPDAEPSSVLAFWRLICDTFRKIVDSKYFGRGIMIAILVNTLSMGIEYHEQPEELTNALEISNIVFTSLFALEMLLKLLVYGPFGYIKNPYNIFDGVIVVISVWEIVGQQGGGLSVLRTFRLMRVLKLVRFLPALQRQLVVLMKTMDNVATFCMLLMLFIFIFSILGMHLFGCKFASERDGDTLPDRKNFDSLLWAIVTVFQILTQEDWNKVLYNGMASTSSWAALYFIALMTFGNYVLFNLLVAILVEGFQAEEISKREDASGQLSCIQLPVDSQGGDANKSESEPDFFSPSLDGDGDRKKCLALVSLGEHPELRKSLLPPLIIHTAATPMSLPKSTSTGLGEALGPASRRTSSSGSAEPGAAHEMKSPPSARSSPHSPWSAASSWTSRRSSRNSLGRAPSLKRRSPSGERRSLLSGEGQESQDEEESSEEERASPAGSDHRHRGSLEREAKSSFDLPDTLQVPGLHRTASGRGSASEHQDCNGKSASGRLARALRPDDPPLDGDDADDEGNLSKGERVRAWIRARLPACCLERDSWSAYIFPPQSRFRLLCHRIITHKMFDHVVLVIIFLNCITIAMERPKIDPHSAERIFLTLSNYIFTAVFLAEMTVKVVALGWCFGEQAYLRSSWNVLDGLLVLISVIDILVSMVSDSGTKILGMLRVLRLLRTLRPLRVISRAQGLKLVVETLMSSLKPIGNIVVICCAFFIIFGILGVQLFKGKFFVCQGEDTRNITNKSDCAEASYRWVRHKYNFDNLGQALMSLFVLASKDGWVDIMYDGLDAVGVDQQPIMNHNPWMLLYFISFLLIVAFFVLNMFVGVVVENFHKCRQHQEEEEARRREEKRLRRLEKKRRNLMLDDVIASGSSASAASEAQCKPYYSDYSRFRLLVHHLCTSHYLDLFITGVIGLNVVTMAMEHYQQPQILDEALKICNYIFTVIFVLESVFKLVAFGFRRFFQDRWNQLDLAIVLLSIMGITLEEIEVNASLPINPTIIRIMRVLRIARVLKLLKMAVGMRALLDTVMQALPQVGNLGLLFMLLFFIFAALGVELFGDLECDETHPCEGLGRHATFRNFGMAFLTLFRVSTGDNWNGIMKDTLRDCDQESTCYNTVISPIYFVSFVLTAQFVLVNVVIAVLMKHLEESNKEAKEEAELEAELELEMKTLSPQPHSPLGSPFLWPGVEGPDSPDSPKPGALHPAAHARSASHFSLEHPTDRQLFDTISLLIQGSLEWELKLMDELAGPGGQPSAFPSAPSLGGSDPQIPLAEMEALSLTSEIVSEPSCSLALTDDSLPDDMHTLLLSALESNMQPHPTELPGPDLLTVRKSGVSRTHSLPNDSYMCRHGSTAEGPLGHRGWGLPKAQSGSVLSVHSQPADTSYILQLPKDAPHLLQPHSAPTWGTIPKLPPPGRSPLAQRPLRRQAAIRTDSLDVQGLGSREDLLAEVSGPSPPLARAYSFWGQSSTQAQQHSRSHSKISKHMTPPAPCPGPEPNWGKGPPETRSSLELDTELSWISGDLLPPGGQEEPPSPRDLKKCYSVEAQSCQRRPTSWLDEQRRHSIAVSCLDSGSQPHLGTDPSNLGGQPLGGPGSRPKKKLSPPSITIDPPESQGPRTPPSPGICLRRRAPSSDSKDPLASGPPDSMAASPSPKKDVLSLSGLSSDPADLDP

`CS(=O)(=O)c1cc(C(F)(F)F)ccc1C(=O)N[C@H]1CC[C@@](F)(S(=O)(=O)c2cccc(OC(F)(F)F)c2)CC1` [Compound 254]: the IC50 in test [1] was 0.26 µM; in test [2], 0.74 µM; in test [3] it was 370 nM.

`Cn1nc(C(F)(F)F)cc1C(=O)N[C@H]1CC[C@@](F)(S(=O)(=O)c2cccc(OC(F)(F)F)c2)CC1` [Compound 255, N-((1S,4S)-4-fluoro-4-(3-(trifluoromethoxy)phenylsulfonyl)cyclohexyl)-1-methyl-3-(trifluoromethyl)-1H-pyrazole-5-carboxamide]: the IC50 turned out to be 3.32 µM in test [1], 2.01 µM in test [2] and 210 nM in test [3].

Take `O=C(N[C@H]1CC[C@@](F)(S(=O)(=O)c2cccc(OC(F)(F)F)c2)CC1)c1ccc(F)c(Cl)c1` [Compound 256, 3-chloro-4-fluoro-N-((1S,4S)-4-fluoro-4-(3-(trifluoromethoxy)phenylsulfonyl)cyclohexyl)benzamide]: the IC50 was determined as 3.32 µM in test [1], 2.01 µM in test [2] and 150 nM in test [3].

Turning to `CS(=O)(=O)c1nc(C(F)(F)F)ccc1C(=O)N[C@H]1CC[C@@](F)(S(=O)(=O)c2cccc(OC(F)(F)F)c2)CC1` [Compound 257], the IC50 in test [1] is 9.02 µM; in test [2] it was 6.9 µM; in test [3], 680 nM.

On to `CS(=O)(=O)c1cc(C(F)(F)F)cnc1C(=O)N[C@H]1CC[C@@](F)(S(=O)(=O)c2cccc(C(F)(F)F)c2)CC1` [Compound 259, N-((1S,4S)-4-fluoro-4-(3-(trifluoromethyl)phenylsulfonyl)cyclohexyl)-3-(methylsulfonyl)-5-(trifluoromethyl)picolinamide], for which the IC50 in test [1] turned out to be 9.62 µM; in test [2], 6.11 µM; in test [3], 500 nM.

Consider `CS(=O)(=O)c1nc(C(F)(F)F)ccc1C(=O)N[C@H]1CC[C@@](F)(S(=O)(=O)c2cccc(C(F)(F)F)c2)CC1` [Compound 260], for which the IC50 came to 3.65 µM in test [1], 2.3 µM in test [2] and 1080 nM in test [3].

Regarding `O=C(N[C@H]1CC[C@@](F)(S(=O)(=O)c2cccc(C(F)(F)F)c2)CC1)c1cnc(C(F)(F)F)nc1` [Compound 261, N-((1S,4S)-4-fluoro-4-(3-(trifluoromethyl)phenylsulfonyl)cyclohexyl)-2-(trifluoromethyl)pyrimidine-5-carboxamide], the IC50 in test [1] was 7.18 µM; in test [2] it was more than 10 µM; in test [3], 1720 nM.

For `CS(=O)(=O)c1cc(Cl)ccc1C(=O)N[C@H]1CC[C@@](F)(S(=O)(=O)c2cccc(C(F)(F)F)c2)CC1` [Compound 262, 4-chloro-N-((1S,4S)-4-fluoro-4-(3-(trifluoromethyl)phenylsulfonyl)cyclohexyl)-2-(methylsulfonyl)benzamide], the values for the IC50 in test [1], in test [2] and in test [3] were 1.47 µM, 2.89 µM and 250 nM, respectively.

For `CS(=O)(=O)c1ccc(C(=O)N[C@H]2CC[C@@](F)(S(=O)(=O)c3cccc(C(F)(F)F)c3)CC2)c(Cl)c1` [Compound 263, 2-chloro-N-((1S,4S)-4-fluoro-4-(3-(trifluoromethyl)phenylsulfonyl)cyclohexyl)-4-(methylsulfonyl)benzamide], the values for the IC50 in test [1], in test [2] and in test [3] were 1.36 µM, 2.23 µM and 2510 nM, respectively.

Regarding `O=C(N[C@H]1CC[C@@](F)(S(=O)(=O)c2cccc(C(F)(F)F)c2)CC1)c1cn2cc(C(F)(F)F)ccc2n1` [Compound 264, N-((1S,4S)-4-fluoro-4-(3-(trifluoromethyl)phenylsulfonyl)cyclohexyl)-6-(trifluoromethyl)imidazo[1,2-a]pyridine-2-carboxamide], the results for the IC50 in test [1], in test [2] and in test [3] were more than 10 µM, 4.48 µM and 470 nM, respectively.

Consider `COc1cc(Cl)ccc1C(=O)N[C@H]1CC[C@@](F)(S(=O)(=O)c2cccc(C(F)(F)F)c2)CC1` [Compound 265, 4-chloro-N-((1S,4S)-4-fluoro-4-(3-(trifluoromethyl)phenylsulfonyl)cyclohexyl)-2-methoxybenzamide], for which the values for the IC50 in test [1], in test [2] and in test [3] were more than 10 µM, more than 10 µM and 260 nM, respectively.

Take `O=C(N[C@H]1CC[C@@](F)(S(=O)(=O)c2cccc(C(F)(F)F)c2)CC1)c1cc2cnccc2nc1C(F)(F)F` [Compound 266, N-((1S,4S)-4-fluoro-4-(3-(trifluoromethyl)phenylsulfonyl)cyclohexyl)-2-(trifluoromethyl)-1,6-naphthyridine-3-carbosamide]: the IC50 was found to be 5.56 µM in test [1], 3.67 µM in test [2] and 2440 nM in test [3].

Regarding `O=C(N[C@H]1CC[C@@](F)(S(=O)(=O)c2cccc(C(F)(F)F)c2)CC1)c1cnccc1C(F)(F)F` [Compound 267], the IC50 in test [1] came to 0.49 µM; in test [2] it was 2.63 µM; in test [3], 790 nM.

For the compound `O=C(N[C@H]1CC[C@@](F)(S(=O)(=O)c2cccc(C(F)(F)F)c2)CC1)c1ccnc(C(F)(F)F)n1` [Compound 268, N-((1S,4S)-4-fluoro-4-(3-(trifluoromethyl)phenylsulfonyl)cyclohexyl)-2-(trifluoromethyl)pyrimidine-4-carboxamide], the IC50 is 1.91 µM in test [1], more than 10 µM in test [2] and 30 nM in test [3].

For the compound `O=C(N[C@H]1CC[C@@](F)(S(=O)(=O)c2cccc(C(F)(F)F)c2)CC1)c1ccc(Cl)c(Cl)c1` [Compound 269, 3,4-dichloro-N-((1S,4S)-4-fluoro-4-(3-(trifluoromethyl)phenylsulfonyl)cyclohexyl)benzamide], the IC50 was more than 10 µM in test [1], more than 10 µM in test [2] and 190 nM in test [3].

As to `O=C(N[C@H]1CC[C@@](F)(S(=O)(=O)c2cccc(C(F)(F)F)c2)CC1)c1ccc(Cl)cc1Cl` [Compound 270, 2,4-dichloro-N-((1S,4S)-4-fluoro-4-(3-(trifluoromethyl)phenylsulfonyl)cyclohexyl) benzamide], the IC50 is 3.58 µM in test [1], 2.54 µM in test [2] and 210 nM in test [3].

In the case of `CS(=O)(=O)c1ccc(C(=O)N[C@H]2CC[C@@](F)(S(=O)(=O)c3cccc(C(F)(F)F)c3)CC2)cc1` [Compound 271, N-((1S,4S)-4-fluoro-4-(3-(trifluoromethyl)phenylsulfonyl)cyclohexyl)-4-(methylsulfonyl)benzamide], the IC50 in test [1] came out at 1.65 µM; in test [2] it was 2.63 µM; in test [3], 8160 nM.

For the compound `CS(=O)(=O)c1cc(C(=O)N[C@H]2CC[C@@](F)(S(=O)(=O)c3cccc(C(F)(F)F)c3)CC2)cc(C(F)(F)F)n1` [Compound 273, N-((1R,4R)-4-fluoro-4-(3-(trifluoromethyl)phenylsulfonyl)cyclohexyl)-2-(methylsulfonyl)-6-(trifluoromethyl)isonicotinamide], the IC50 was more than 10 µM in test [1], more than 10 µM in test [2] and 430 nM in test [3].

Consider `O=C(CCC(F)(F)F)N[C@H]1CC[C@@](F)(S(=O)(=O)c2cccc(C(F)(F)F)c2)CC1` [Compound 274, 4,4,4-trifluoro-N-((1S,4S)-4-fluoro-4-(3-(trifluoromethyl)phenylsulfonyl)cyclohexyl)butanamide], for which the figures for the IC50 in test [1], in test [2] and in test [3] were 1.05 µM, 2.54 µM and 530 nM, respectively.

Consider `O=C(N[C@H]1CC[C@@](F)(S(=O)(=O)c2cccc(C(F)(F)F)c2)CC1)C1(C(F)(F)F)CC1` [Compound 275, N-((1S,4S)-4-fluoro-4-(3-(trifluoromethyl)phenylsulfonyl)cyclohexyl)-1-(trifluoromethyl) cyclopropaneCarboxamide], for which the IC50 in test [1] was more than 10 µM; in test [2], more than 10 µM; in test [3], 700 nM.

Regarding `COc1ccc(C2(C(=O)N[C@H]3CC[C@@](F)(S(=O)(=O)c4cccc(C(F)(F)F)c4)CC3)CC2)cc1` [Compound 276, N-((1S,4S)-4-fluoro-4-(3-(trifluoromethyl)phenylsulfonyl)cyclohexyl)-1-(4-methoxyphenyl) cyclopropanecarboxamide], the IC50 in test [1] is 2.3 µM; in test [2] it was more than 10 µM; in test [3], 380 nM.

As to `O=C(N[C@H]1CC[C@@](F)(S(=O)(=O)c2cccc(C(F)(F)F)c2)CC1)C1CCCC1` [Compound 277, N-((1S,4S)-4-fluoro-4-(3-(trifluoromethyl)phenylsulfonyl)cyclohexyl) cyclopentanecarboxamide], the IC50 in test [1] was 0.54 µM; in test [2] it was 2.46 µM; in test [3], 470 nM.

For `CC(C)(C)CC(=O)N[C@H]1CC[C@@](F)(S(=O)(=O)c2cccc(C(F)(F)F)c2)CC1` [Compound 278, N-((1S,4S)-4-fluoro-4-(3-(trifluoromethyl)phenylsulfonyl)cyclohexyl)-3,3-dimethylbutanamide], the figures for the IC50 in test [1], in test [2] and in test [3] were 2.23 µM, 2.48 µM and 280 nM, respectively.

Turning to `O=C(N[C@H]1CC[C@@](F)(S(=O)(=O)c2cccc(C(F)(F)F)c2)CC1)C1Cc2ccccc2N1` (stereo partly drawn) [Compound 279, N-((1S,4S)-4-fluoro-4-(3-(trifluoromethyl)phenylsulfonyl)cyclohexyl) indoline-2-carboxamide], the IC50 in test [1] was 2.09 µM; in test [2] it was more than 10 µM; in test [3] it was 450 nM.
